Test system: Nlrp3 A350V/+ CreT knock-in mice
Assay: Nlrp3 A350V/+ CreT knock-in mouse model of Muckle Wells syndrome
Format: in vivo
Settings: 30 mg/kg orally once daily
Protocol: The effect of JT002 treatment on systemic and hepatic inflammation and hepatic fibrosis was evaluated in vivo using a murine Nlrp3 knock-in (KI) model of human Muckle Wells syndrome. In humans, mutation of alanine 352 to valine (A352V) in NLRP3 results in the constitutively active NLRP3 inflammasome which leads to excessive cytokine production and a clinical presentation characteristic of MWS[11]. The Nlrp3^A350V/+ CreT KI murine model (Nlrp3 KI model) contains a conditional A350V autosomal-dominant mutation that is analogous to the human A352V mutation[13],[23],[25]. In this model, mutant Nlrp3 expression occurs only in mice expressing Cre recombinase, which is inducible through the administration of tamoxifen, thus allowing for temporal control of the gain-of-function mutant Nlrp3. In vehicle-control mice, tamoxifen-induced activation of mutant Nlrp3 produces an inflammatory and fibrotic phenotype consisting of weight loss, increased liver weight, elevated liver alanine aminotransferase (ALT), systemic and hepatic neutrophilia, increased hepatic collagen deposition, and increased numbers of activated hepatic stellate cells (HSCs)[13],[23],[25]. In the Nlrp3^A350V/+ CreT study, vehicle or 30 mg/kg JT002 (n = 4/group) was dosed orally once daily starting one day prior to the first administration of tamoxifen. One animal from each group was found dead on day 4 and day 11 from the JT002 dosed group and the vehicle group, respectively, leaving only 3 animals per group. […] Serum levels of ALT in vehicle-treated mice averaged 186 U/L while ALT levels were reduced to 93 U/L in mice administered JT002 (Fig. 4C).
Total RNA was isolated from liver tissue (~ 50 mg) via syringe homogenization in TRIzol™ and cDNA synthesized using the iScript™ cDNA Synthesis kit (Biorad, Hercules, CA, USA). Real-time PCR was performed using TaqMan Fast Advanced Master Mix (ThermoFisher) and samples were amplified using QuantStudio-7 (ThermoFisher) in accordance with manufacturers’ instructions. The following TaqMan Gene Expression Assays (cat. no. 4331182, Applied Biosystems, Foster City, CA) were used: Acta2, Mm00725412_s1; Ctgf, Mm01192933_g1; Mpo, Mm01298424_m1; Pycard, Mm00445747_g1; Casp1, Mm00438023_m1; Il1b assay ID Mm00434228_m1.
Nlrp3^A350V/+ CreT knock-in mice were provided by Hal M. Hoffman, University of California, San Diego, USA. The study was performed using two randomized groups of male and female Nlrp3^A350V/+ CreT mice (n = 4/group) between 6- and 8-weeks of age at the start of the study. Vehicle (0.5% methyl cellulose, 0.25% Tween 80 in 50 mM NaH2PO4/Na2HPO4 at pH 7.8) or JT002 at 30 mg/kg was administered orally once daily for 30 days starting on Day 1. Tamoxifen (free base) (MP Biomedicals, Solon, OH, USA) was prepared in 90% sunflower seed oil and 10% ethanol and administered at 50 mg/kg intraperitoneally (IP) daily for 4 consecutive days, starting on Day 1, followed by a booster injection on Day 16. Mice were weighed every day to monitor compound activity. On Day 29, a submandibular cheek bleed was performed to obtain whole blood for total blood cell counting. Mice were euthanized on Day 30 and blood and livers were harvested and stored appropriately. Tissue specimens were fixed in 10% formalin and subsequently embedded in paraffin for histopathological assessments, or snap frozen in liquid N2 and stored in low temperature freezers. Complete blood counts and differentials were conducted on a HemaVet Auto Blood Analyzer (Drew Scientific, Miami Lakes, FL, USA). In vitro quantitative determination of alanine aminotransferase (ALT) in serum was performed using the Infinity™ ALT (GPT) Liquid Stable Reagent (cat. n. TR71121, Fisher Diagnostics, Middletown, VA, USA). Sirius Red staining and immunohistochemistry for hepatic MPO and αSMA were performed as described previously.

CO[C@@H]1COc2c(S(=O)(=O)NC(=O)Nc3c4c(cc5c3CCC5)CCC4)cnn2C1 [JT002] was tested, and the body weight loss was “prevented the body weight loss”, the circulating eosinophil count was “strong trend for reduced” and the circulating neutrophil count was “significant normalization”. The “circulating total white blood cell count” value was “significant normalization”, the “degree of liver inflammation by H&E staining” value was “visible reduction in the degree of inflammation” and the “hepatic collagen content (Picrosirius red staining)” value was “considerably reduced”. For the same compound, the “hepatic gene expression of Acta2” value was “substantially downregulated”, the “hepatic gene expression of Casp1” value was “substantially reduced” and the “hepatic gene expression of Ctgf” value was “substantially downregulated”. The “hepatic gene expression of Il1b” value was “substantially reduced”, the “hepatic gene expression of Mpo” value was “substantially reduced” and the “hepatic gene expression of Pycard (ASC)” value was “substantially reduced”. The “reduction in hepatic immunostaining for αSMA (HSC activation)” value was 93%, the “reduction of hepatic neutrophil recruitment (myeloperoxidase immunostaining)” value was 91% and the “liver weight as a percent of body weight” value (vehicle 9.4) was 5.7%. For the same compound, the “serum ALT level” value (vehicle 186 U/L) was 93 U/L.
